Results from publication PMC12718081 (ACS Infectious Diseases, 2025).
Where “and” joins values, the source holds several entries; their conditions need not be identical. Equal entries are not always repeated. Entries after “also recorded” stand apart in the source; their conditions may differ. Where two headings read alike, the source gives them in different places.

How the values were obtained:
[1] = tested on: adult schistosomes (male and female worms); assay: Adult worm ex vivo high-content image-based motility assay; assay type: cell-based, Schistosoma mansoni
Experimental: Adult schistosomes’ motility was determined using a high-content assay previously developed by our group, , with images analyzed in CellProfiler software. More details are provided in the Supporting Information.
(§1) Adult worm ex-vivo high-content assay
(§2) “Area” and “False Negative Rate” from the MeasureObjectSizeShape and MeasureObjectOverlap modules, respectively. These measurements were then modeled by a multilevel generalized linear statistical model. The effects of the experimental treatments on […]
(§3) The half-maximal inhibitory
(§4) Windows (GraphPad Software, Boston, MA, USA; www.graphpad.com). […]
with DMSO as a negative control.

[2] = tested on: juvenile schistosomes (21 days p.i.); assay: XTT juvenile viability assay; assay type: cell-based, Schistosoma mansoni; settings: 100 μM, 48 h
[3] = tested on: HepG2 hepatic epithelial cells; assay: in vitro; settings: for Selectivity Index (CC50/EC50), Male: HepG2 CC50 / male worm motility EC50, 48 h
Experimental: (§5) Next, we conducted a more detailed investigation by performing dose–response assays with each compound on HepG2 hepatic epithelial cells, as the liver is one of the major organs affected in intestinal schistosomiasis.
(§6) More details are provided in the Supporting Information.
as §1
(§7) Male and female worms were placed in 96-well microplates (one worm per well) and incubated […]
(§8) to 72 hours. Brightfield timelapse images (100 images, 0.3-second intervals) were captured from each well before, immediately after, and every 24 hours following compound addition using an ImageXpress Micro Confocal High Content System equipped with a 2x objective. Image analysis was performed through a custom pipeline in CellProfiler software (v. 4.2.1, Windows OS).57 During analysis, the area of each worm and its displacement between consecutive image captures (i.e., images taken at successive time points) were measured using the parameters “Area” and “False Negative Rate” from the MeasureObjectSizeShape and MeasureObjectOverlap modules, respectively. These measurements were then modeled by a multilevel generalized linear statistical model. The effects of the experimental treatments on parasite motility were estimated with the integrated nested Laplace approximation (INLA) method, available in the INLA package of R (https://www.r-inla.org). The half-maximal inhibitory concentration (EC50) of each compound was calculated based on the worms' estimated motility using the […] 4-parameter logistic equation in GraphPad Prism version 9.0.0 for Windows (GraphPad Software, Boston, MA, USA; www.graphpad.com). […]
(§9) either at a fixed concentration (10 µM) or across a range of concentrations (0.0001–300 µM), or with DMSO as a negative control. Two hours before the end of the experiment (t0), a resazurin solution (final concentration: 0.01 mg/mL) was added to each well and the first fluorescence […]
(§10) reader. At the end of the incubation (t1), a second reading was performed. The fluorescence attributed solely to resorufin was measured by subtracting the fluorescence readings at t0 from those at t1. The results were expressed as percentual cell viability considering negative control

[4] = in vitro; settings: human, HepG2 cytotoxicity (CC50)
Experimental: as §5, §6, §1, §7, §8, §9, §10

[5] = target: Eg.TRPMPZQ (Echinococcus granulosus, UniProt W6UVV9); assay: cell-based; settings: HEK293, Ca2+ reporter, mean ± standard deviation; for Emax: read-out: Bmax, Eg.TRPMPZQ activation
Sequence of Eg.TRPMPZQ (W6UVV9 entry or part of it): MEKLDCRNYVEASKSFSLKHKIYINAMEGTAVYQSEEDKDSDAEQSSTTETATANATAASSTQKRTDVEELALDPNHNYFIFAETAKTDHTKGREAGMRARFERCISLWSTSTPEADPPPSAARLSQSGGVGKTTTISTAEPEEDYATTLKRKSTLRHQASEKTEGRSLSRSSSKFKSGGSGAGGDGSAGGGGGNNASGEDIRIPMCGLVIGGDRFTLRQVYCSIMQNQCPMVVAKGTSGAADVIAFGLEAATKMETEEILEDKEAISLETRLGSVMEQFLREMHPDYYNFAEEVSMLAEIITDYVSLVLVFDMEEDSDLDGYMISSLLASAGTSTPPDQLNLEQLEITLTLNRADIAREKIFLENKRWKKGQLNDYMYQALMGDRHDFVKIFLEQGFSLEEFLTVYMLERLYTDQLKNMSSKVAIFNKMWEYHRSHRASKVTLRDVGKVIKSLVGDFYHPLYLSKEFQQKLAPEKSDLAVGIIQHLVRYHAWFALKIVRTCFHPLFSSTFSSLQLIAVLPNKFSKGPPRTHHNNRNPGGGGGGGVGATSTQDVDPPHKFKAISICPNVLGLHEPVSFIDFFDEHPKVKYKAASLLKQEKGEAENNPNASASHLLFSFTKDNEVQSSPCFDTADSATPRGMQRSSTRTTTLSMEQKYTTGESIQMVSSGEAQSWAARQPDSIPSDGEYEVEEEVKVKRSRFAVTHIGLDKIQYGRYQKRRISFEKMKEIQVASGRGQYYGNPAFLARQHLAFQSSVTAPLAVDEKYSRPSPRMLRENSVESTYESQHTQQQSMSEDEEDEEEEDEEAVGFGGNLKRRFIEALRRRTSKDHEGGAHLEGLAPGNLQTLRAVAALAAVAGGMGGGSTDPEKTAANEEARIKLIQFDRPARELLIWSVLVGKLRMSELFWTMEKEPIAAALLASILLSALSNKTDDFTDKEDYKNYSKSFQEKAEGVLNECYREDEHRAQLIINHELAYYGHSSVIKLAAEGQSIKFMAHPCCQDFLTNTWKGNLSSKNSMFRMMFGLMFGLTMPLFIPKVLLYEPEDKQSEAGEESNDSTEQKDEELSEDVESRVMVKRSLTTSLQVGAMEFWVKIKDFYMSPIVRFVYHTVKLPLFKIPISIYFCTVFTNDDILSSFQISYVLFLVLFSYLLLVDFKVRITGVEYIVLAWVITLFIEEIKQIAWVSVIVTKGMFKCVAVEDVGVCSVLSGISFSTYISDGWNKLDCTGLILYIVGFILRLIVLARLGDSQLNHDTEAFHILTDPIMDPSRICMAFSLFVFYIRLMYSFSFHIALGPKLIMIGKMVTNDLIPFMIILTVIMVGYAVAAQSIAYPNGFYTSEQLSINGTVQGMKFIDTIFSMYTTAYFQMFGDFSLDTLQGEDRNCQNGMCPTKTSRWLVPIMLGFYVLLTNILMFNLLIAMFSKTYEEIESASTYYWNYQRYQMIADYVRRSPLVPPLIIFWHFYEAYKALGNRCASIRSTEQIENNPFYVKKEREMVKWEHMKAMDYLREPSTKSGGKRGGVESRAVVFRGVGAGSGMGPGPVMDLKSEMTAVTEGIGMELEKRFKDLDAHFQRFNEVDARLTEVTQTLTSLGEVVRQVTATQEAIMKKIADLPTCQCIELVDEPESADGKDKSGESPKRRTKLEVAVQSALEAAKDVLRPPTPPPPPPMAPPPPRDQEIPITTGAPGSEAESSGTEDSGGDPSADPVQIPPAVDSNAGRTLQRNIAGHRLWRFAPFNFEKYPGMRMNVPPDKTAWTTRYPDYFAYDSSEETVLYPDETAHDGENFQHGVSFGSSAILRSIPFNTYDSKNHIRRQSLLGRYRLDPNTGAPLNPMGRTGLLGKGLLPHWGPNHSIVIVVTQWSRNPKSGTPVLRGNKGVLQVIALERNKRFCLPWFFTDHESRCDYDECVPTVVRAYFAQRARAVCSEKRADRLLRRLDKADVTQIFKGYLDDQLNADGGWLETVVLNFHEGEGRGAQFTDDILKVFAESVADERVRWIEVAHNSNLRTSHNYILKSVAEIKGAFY

[6] = tested on: Sm.TRPMMCLZ; assay: Ca2+ reporter (FLIPR) activation assay, Sm.TRPMMCLZ in HEK293 cells; assay type: cell-based, Schistosoma mansoni; settings: at the tested concentrations, data not shown
Experimental: (§11) Finally, selectivity for Sm.TRPMPZQ was assessed by profiling responses on the F. hepatica (Fh.TRPMPZQ) and E. granulosus (Eg.TRPMPZQ) TRPMPZQ orthologs, as well as the schistosome TRPM paralog Sm.TRPMMCLZ, a distinct TRPM channel activated by meclonazepam. Meclonazepam is an anthelmintic benzodiazepine known for its toxicity to juvenile schistosome worms.
(§12) The Ca^2+ reporter assay was performed using a Fluorescence Imaging Plate Reader (FLIPR) system, as described in the Supporting Information. […]
as §3, §4
(§13) with DMSO as a negative control. […]
(§14) reader. […] The fluorescence
(§15) Untransfected HEK293 cells were used as a control.
(§16) 10% fetal bovine serum (FBS). […]
(§17) atmosphere containing 5% CO₂. Following incubation, the growth medium was removed and […]
(§18) buffer containing 2.5 mM probenecid in HBSS (with Ca²⁺ and Mg²⁺), 20 mM HEPES, 0.3% BSA (Sigma, A7030), and 0.03% L-ascorbic acid (Sigma). Cells were incubated for 40 minutes at 37 °C and subsequently for 20 minutes at room temperature. A total of seven PZQ derivatives were tested, using racemic PZQ included as a positive control on each assay plate. Drug dilutions were prepared in assay buffer without dye and probenecid and dispensed into separate flat-bottom 384-well plates. Calcium flux measurements were performed at room temperature using a […]
(§19) instrument (Molecular Devices). Baseline fluorescence was recorded for 20 seconds, followed by the addition of 5 µL of each drug solution, after which fluorescence was measured continuously for 250 seconds. […]

[7] = target: Sm.TRPMPZQ (wild-type) (Schistosoma mansoni, UniProt A0A5K4F0X5); assay: Ca2+ reporter (FLIPR) activation assay, wild-type Sm.TRPMPZQ in HEK293 cells; assay type: cell-based
Sequence of Sm.TRPMPZQ (wild-type) (A0A5K4F0X5 entry or part of it): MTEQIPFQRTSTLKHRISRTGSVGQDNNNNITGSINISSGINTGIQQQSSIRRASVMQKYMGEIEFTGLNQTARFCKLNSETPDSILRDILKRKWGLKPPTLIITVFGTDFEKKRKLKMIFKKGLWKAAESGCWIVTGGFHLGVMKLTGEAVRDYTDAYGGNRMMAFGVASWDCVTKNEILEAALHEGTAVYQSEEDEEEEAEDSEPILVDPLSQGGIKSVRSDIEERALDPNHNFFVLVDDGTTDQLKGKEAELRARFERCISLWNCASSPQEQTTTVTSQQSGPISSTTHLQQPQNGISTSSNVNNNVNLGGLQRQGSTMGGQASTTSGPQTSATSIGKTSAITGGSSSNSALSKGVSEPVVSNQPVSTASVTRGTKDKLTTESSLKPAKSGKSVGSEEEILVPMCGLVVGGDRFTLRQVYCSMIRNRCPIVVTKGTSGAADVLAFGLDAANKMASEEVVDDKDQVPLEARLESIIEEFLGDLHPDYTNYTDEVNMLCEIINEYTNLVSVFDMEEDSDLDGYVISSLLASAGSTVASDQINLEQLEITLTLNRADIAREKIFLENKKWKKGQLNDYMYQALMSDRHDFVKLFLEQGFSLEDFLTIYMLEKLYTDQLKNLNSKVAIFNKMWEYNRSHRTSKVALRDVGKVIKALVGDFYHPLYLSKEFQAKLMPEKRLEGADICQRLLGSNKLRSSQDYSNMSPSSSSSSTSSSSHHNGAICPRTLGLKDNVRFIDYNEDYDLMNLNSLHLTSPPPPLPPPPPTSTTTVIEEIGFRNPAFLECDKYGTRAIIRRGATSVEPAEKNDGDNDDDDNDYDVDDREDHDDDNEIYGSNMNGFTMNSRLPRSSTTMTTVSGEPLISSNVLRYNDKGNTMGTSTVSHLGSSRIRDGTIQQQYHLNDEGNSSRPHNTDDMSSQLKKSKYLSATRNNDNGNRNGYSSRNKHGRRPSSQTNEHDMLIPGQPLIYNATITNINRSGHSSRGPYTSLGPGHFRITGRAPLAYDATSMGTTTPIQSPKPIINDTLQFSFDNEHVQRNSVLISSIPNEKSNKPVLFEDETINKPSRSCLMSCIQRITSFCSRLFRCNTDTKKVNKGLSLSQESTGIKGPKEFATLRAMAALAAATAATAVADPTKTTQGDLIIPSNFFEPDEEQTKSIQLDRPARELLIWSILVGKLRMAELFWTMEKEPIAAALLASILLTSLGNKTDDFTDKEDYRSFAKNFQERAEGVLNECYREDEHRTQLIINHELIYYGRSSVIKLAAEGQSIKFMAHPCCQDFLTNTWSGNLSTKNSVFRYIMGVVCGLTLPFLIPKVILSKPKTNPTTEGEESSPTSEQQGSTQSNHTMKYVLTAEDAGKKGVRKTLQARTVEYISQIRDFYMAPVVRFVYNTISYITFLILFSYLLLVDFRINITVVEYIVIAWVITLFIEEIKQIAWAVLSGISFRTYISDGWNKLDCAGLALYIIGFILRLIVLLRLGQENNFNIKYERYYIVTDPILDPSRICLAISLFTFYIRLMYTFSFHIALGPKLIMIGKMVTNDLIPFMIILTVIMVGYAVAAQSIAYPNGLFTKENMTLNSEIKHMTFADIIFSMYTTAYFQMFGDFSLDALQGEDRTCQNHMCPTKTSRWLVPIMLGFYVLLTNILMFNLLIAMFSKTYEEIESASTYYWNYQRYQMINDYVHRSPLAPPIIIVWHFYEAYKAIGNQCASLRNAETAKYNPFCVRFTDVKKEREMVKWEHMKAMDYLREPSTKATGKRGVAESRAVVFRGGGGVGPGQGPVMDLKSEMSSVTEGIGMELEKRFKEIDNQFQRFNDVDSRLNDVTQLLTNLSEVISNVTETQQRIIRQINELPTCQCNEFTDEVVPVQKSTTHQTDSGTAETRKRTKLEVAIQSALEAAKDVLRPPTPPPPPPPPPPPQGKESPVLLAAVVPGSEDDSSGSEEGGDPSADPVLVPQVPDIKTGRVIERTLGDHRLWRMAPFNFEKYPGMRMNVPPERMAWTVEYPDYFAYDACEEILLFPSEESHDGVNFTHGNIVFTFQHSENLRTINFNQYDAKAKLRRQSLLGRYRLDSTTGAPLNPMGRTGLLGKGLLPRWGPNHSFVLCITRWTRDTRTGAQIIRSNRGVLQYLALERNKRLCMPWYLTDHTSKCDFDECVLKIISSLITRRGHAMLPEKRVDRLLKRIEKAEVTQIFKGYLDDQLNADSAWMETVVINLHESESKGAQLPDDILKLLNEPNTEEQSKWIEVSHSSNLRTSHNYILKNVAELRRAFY
Experimental: as §12, §3, §4, §13, §14, §15, §16, §17
buffer containing 2.5 mM probenecid in HBSS (with Ca²⁺ and Mg²⁺), 20 mM HEPES, 0.3% BSA (Sigma, A7030), and 0.03% L-ascorbic acid (Sigma). Cells were incubated for 40 minutes at 37 °C and subsequently for 20 minutes at room temperature. […]
prepared in assay buffer without dye and probenecid and dispensed into separate flat-bottom 384-well plates. Calcium flux measurements were performed at room temperature using a […]
as §19

[8] = tested on: Fh.TRPMPZQ; assay: Ca2+ reporter (FLIPR) activation assay, Fh.TRPMPZQ in HEK293 cells; assay type: cell-based, Fasciola hepatica; settings: at the tested concentrations, data not shown
Experimental: as §11, §12, §3, §4, §13, §14, §15, §16, §17, §18, §19

[9] = tested on: juvenile schistosomes; assay: Microscopy analysis of juvenile morphology and motility (viability score 0-3); settings: 10 μM, 72 h; for number of juvenile worms with viability score 0 / number of juvenile worms with viability score 1 / number of juvenile worms with viability score 2 / number of juvenile worms with viability score 3: Table S1
[10] = tested on: S. mansoni schistosomula; assay: Roboworm high-content screening assay on schistosomula (motility and phenotype scores); assay type: cell-based, Schistosoma mansoni; settings: 25 μM, 72 h
Experimental: All PZQ derivatives were synthesized in the racemic form and evaluated as such. The compounds were initially screened at 10 μM against S. mansoni schistosomula using the Roboworm high-content screening assay , and were declared hits or nonhits based on their effect on parasites’ motility and phenotype scores after 72 h of incubation. As none of the compounds were considered hits at this concentration, we performed a titration from 6.25 to 50 μM (Figure S27).
DMSO was included as a negative control. Compounds were considered hits if both their motility and phenotype scores were lower than −0.35 and −0.15, respectively (region delimited by the dashed lines). In red, PZQ analogues selected for further analysis.
For the collection of schistosomula, B. glabrata snails infected with S. mansoni were shed for 2 h under light at 26 °C. Cercariae were collected, mechanically transformed into schistosomula as previously described.
DMSO (0.625%, v/v) was included as a negative control. Z′ values for the assay were calculated to be 0.542 for phenotype and 0.361 for motility. […]
(§20) Auranofin (AUR) was included at 10 µM as positive control. DMSO was included as a negative control. Compounds were considered hits if both their motility and phenotype scores were lower than -0.35 and -0.15, respectively (region delimited by the […]

[11] = tested on: Sm.TRPMPZQ; assay: Ca2+ reporter assay in antagonist mode (block of PZQ activation of Sm.TRPMPZQ); assay type: cell-based, Schistosoma mansoni; settings: preincubation 1 nM-100 μM for 10 min, data not shown
Experimental: The Ca^2+ reporter assay was performed using a Fluorescence Imaging Plate Reader (FLIPR) system, as described in the Supporting Information.
as §1, §2, §3, §4, §13, §14, §15, §16, §17, §18, §19
as §20, with “schistosomula after 72h of incubation using the Roboworm high-content screening assay. Auranofin” for “Auranofin”
(1 picture or pasted object on this page, not shown here)

[12] = Schistosoma mansoni, 24 h, male adult worms, 24 h, single experiment or geometric mean, read-out: Male worm motility inhibition (EC50)
[13] = Schistosoma mansoni, 48 h, male adult worms, 48 h, single experiment or geometric mean, read-out: Male worm motility inhibition (EC50)
[14] = Schistosoma mansoni, 72 h, male adult worms, 72 h, single experiment or geometric mean, read-out: Male worm motility inhibition (EC50)

Nc1ccc2c(c1)C1CN(C(=O)C3CCCCC3)CC(=O)N1CC2 (stereo not shown) [Compound 3, 9-NH2–PZQ]
EC50 ([1]; Schistosoma mansoni, 0 h, female adult worms, 0 h (immediately after addition), single experiment or geometric mean, read-out: Female worm motility inhibition (EC50)): 8.36 µM
EC50 ([1]; Schistosoma mansoni, 24 h, female adult worms, 24 h, single experiment or geometric mean, read-out: Female worm motility inhibition (EC50)): 9.6 µM
EC50 ([1]; Schistosoma mansoni, 24 h, female, 24 h, individual experiments, read-out: Female worm motility inhibition (EC50), values of independent experiments): 9.04 µM
EC50 [1, 12]: 5.4 µM
EC50 ([1]; Schistosoma mansoni, 48 h, female adult worms, 48 h, single experiment or geometric mean, read-out: Female worm motility inhibition (EC50)): 9.9 µM
EC50 ([1]; Schistosoma mansoni, 48 h, female, 48 h, individual experiments, read-out: Female worm motility inhibition (EC50), values of independent experiments): 9.36 µM
EC50 [1, 13]: 4.5 µM
EC50 ([1]; Schistosoma mansoni, 48 h, male, 48 h, individual experiments, read-out: Male worm motility inhibition (EC50), values of independent experiments): 3.94 µM
EC50 ([1]; Schistosoma mansoni, 72 h, female adult worms, 72 h, single experiment or geometric mean, read-out: Female worm motility inhibition (EC50)): 11.2 µM
EC50 ([1]; Schistosoma mansoni, 72 h, female, 72 h, individual experiments, read-out: Female worm motility inhibition (EC50), values of independent experiments): 8.77 µM
EC50 [1, 14]: 3.5 µM
EC50 ([1]; Schistosoma mansoni, 72 h, male, 72 h, individual experiments, read-out: Male worm motility inhibition (EC50), values of independent experiments): 3.8 µM
EC50 ([1]; female adult worms, 72 h, single experiment or geometric mean, read-out: Female worm motility inhibition (EC50)): 11 µM
EC50 ([1]; female, 24 h, individual experiments, read-out: Female worm motility inhibition (EC50), values of independent experiments): 10.2 µM
EC50 ([1]; female, 48 h, individual experiments, read-out: Female worm motility inhibition (EC50), values of independent experiments): 10.5 µM
EC50 ([1]; female, 72 h, individual experiments, read-out: Female worm motility inhibition (EC50), values of independent experiments): 14.3 µM
EC50 ([1]; male, 24 h, individual experiments, read-out: Male worm motility inhibition (EC50), values of independent experiments): 8.1 µM and 5.61 µM and 3.44 µM
EC50 ([1]; male, 48 h, individual experiments, read-out: Male worm motility inhibition (EC50), values of independent experiments): 4.56 µM
EC50 ([1]; male, 72 h, individual experiments, read-out: Male worm motility inhibition (EC50), values of independent experiments): 3.29 µM and 3.58 µM
parasite metabolic activity compared to the DMSO control group (XTT) [2]: significantly decreased
Selectivity Index (CC50/EC50), Female ([3]; HepG2 CC50 / female worm motility EC50, 48 h): >30
Selectivity Index (CC50/EC50), Male [3]: >67
CC50 ([3]; human, 48 h): > 300 µM
CC50 at 48 h [4]: ~300 µM
Emax [5]: 138 ± 13.2%
activation of Sm.TRPMMCLZ [6]: did not activate
EC50 ([7]; 0.001 to 100 μM): 7.09 ± 0.18 µM
Emax ([7]; read-out: Bmax, wild-type Sm.TRPMPZQ activation): 90 ± 1.31%
activation of Fh.TRPMPZQ [8]: did not activate
number of juvenile worms with viability score 0 [9]: 38
number of juvenile worms with viability score 1 [9]: 2
number of juvenile worms with viability score 2 [9]: 14
number of juvenile worms with viability score 3 [9]: 38

O=C(C1CCCCC1)N1CC(=O)N2CCc3ccc(-n4cc(COc5ccccc5)nn4)cc3C2C1 (stereo not shown) [Compound 5c]
hit classification (motility and phenotype scores) [10]: borderline
EC50 ([1]; Schistosoma mansoni, 0 h, male adult worms, 0 h (immediately after addition), single experiment or geometric mean, read-out: Male worm motility inhibition (EC50)): > 100 µM
EC50 [1, 12]: > 100 µM
EC50 [1, 13]: > 100 µM
EC50 [1, 14]: > 100 µM
parasite metabolic activity compared to the DMSO control group (XTT) [2]: no statistically significant differences
block of PZQ activation of Sm.TRPMPZQ (antagonist mode) [11]: failed to impact subsequent responses to PZQ
Selectivity Index (CC50/EC50), Male [3]: <0.9
Selectivity Index (SI), sex not specified ([3]; HepG2 vs adult worms, 48 h): < 1
CC50 at 48 h [4]: 88.1 µM
EC50 for Eg.TRPMPZQ activation [5]: No signal
Emax [5]: 7.63 ± 0.72%
Bmax, wild-type Sm.TRPMPZQ activation [7]: No activity
EC50 for wild-type Sm.TRPMPZQ activation ([7]; 0.001 to 100 μM): failed to activate; also recorded: No activity
activity against juvenile schistosomes (grouped score analysis) [9]: lacks activity
number of juvenile worms with viability score 0 [9]: 19
number of juvenile worms with viability score 1 [9]: 1
number of juvenile worms with viability score 2 [9]: 4
number of juvenile worms with viability score 3 [9]: 72
